We go through one compound from publication PMC8237303 (Heliyon, 2021).

For one assay, the system named is IP3 receptor. The experiment in a line: D-[3H]-Inositol-1,4,5-Triphosphate binding assay. As to conditions: 0.1 mM l-menthol; Rat cerebellum.
Assay [1] addresses Dopamine D4.2 receptor (Human) (Homo sapiens, UniProt P21917, DEL265-296). The experiment in a line: [3H]-Spiperone binding assay. As to conditions: 0.1 mM l-menthol; Human recombinant.
The target of assay [2] is Neurotensin NT1 receptor (Human) (Homo sapiens, UniProt P30989). The experiment in a line: [125I]-Neurotensin binding assay. As to conditions: 0.1 mM l-menthol; Human recombinant.
For assay [3], the system named is Bombesin receptor (Non-selective). The experiment in a line: [125I]-Bombesin binding assay. As to conditions: 0.1 mM l-menthol; Rat whole brain.
In assay [4] the test system is GABA A receptor (Agonist site). The experiment in a line: [3H]-Muscimol binding assay. The following applies: 0.1 mM l-menthol; Rat cerebellum.
For assay [5], the system named is Ca channel (Type L, Phenylalkylamine). The experiment in a line: [3H]-. The assay is classed as binding. The following applies: 0.1 mM l-menthol; Rat cerebral cortex.
The subject of another assay is Monoamine transporter. The experiment in a line: [3H]-α-Dihydrotetrabenazine binding assay. As to conditions: 0.1 mM l-menthol; Rabbit platelet.
For another assay, the target named is VIP 1 receptor (Human) (Homo sapiens, UniProt P32241). The experiment in a line: [125I]-Vasoactive Intestinal Polypeptide binding assay. As to conditions: 0.1 mM l-menthol; Human receptor (Non-recombinant).
The target of assay [6] is β1-Adrenergic receptor (Human) (Homo sapiens, UniProt P08588). The experiment in a line: [3H]-. In kind it is binding. As to conditions: 0.1 mM l-menthol; Human recombinant.
A further assay concerns Na Channel. The assay is classed as binding. The following applies: 0.1 mM l-menthol; Rat whole brain.
Assay [7] relates to Glutamate receptor (NMDA agonist site). The experiment in a line: [3H]-CGP-39653 binding assay. As to conditions: 0.1 mM l-menthol; Rat cerebral cortex.
Assay [8] has as its system Glutamate receptor (NMDA phencycidine site). The experiment in a line: [3H]-. The assay is classed as binding. As to conditions: 0.1 mM l-menthol; Rat cerebral cortex.
In assay [9] the target is Histamine H3 receptor (Human) (Homo sapiens, UniProt Q9Y5N1). The experiment in a line: N-alpha-[3H]-Methylhistamine, Dihydrochloride binding assay. As to conditions: 0.1 mM l-menthol; Human recombinant.
Histamine H3 receptor (Human), sequence (Q9Y5N1 whole entry): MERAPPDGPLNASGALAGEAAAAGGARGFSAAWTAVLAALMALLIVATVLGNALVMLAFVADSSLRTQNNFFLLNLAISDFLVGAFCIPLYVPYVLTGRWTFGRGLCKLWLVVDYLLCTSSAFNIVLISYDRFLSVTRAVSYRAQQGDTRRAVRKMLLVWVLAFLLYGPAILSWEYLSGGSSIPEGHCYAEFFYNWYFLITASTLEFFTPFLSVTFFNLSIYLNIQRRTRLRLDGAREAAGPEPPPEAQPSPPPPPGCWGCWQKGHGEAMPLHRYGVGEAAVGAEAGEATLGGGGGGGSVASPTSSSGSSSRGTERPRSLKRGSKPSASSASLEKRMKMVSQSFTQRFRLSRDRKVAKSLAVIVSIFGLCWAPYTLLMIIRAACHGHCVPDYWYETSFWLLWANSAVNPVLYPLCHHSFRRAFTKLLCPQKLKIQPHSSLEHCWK

β1-Adrenergic receptor (Human), sequence (P08588 whole entry): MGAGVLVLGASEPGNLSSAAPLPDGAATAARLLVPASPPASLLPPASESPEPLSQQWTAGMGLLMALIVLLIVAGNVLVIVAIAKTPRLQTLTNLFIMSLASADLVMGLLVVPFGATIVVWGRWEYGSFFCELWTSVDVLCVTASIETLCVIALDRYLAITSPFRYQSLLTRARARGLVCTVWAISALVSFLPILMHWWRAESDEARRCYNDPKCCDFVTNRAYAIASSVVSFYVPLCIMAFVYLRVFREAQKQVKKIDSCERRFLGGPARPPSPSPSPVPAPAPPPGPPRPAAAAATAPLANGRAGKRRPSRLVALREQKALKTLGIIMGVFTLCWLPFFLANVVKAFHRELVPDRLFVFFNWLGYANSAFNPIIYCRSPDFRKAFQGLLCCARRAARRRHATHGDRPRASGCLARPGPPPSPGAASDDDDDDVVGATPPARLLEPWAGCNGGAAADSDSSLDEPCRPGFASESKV
Neurotensin NT1 receptor (Human), sequence (P30989 whole entry): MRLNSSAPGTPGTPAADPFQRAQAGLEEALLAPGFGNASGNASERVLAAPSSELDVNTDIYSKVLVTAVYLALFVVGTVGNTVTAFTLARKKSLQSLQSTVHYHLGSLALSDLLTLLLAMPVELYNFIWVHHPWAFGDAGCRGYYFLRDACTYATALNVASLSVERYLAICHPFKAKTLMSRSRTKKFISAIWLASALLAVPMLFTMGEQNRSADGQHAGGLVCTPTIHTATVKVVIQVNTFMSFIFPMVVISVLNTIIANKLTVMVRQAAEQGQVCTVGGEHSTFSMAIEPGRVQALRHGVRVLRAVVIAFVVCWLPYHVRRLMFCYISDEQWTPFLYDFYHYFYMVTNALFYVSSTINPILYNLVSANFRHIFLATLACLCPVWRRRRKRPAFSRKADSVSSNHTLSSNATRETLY
VIP 1 receptor (Human), sequence (P32241 31-457): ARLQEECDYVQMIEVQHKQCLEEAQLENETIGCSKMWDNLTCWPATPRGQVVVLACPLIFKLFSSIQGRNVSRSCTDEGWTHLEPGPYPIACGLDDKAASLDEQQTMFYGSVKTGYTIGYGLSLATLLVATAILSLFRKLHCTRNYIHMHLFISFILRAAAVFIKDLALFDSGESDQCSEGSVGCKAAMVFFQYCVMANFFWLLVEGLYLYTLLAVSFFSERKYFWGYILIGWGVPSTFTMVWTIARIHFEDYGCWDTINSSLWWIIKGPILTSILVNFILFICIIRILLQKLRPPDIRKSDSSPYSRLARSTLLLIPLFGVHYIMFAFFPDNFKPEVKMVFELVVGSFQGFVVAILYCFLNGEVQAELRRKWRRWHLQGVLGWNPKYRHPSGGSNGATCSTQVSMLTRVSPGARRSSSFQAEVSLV

Regarding `CC(C)[C@@H]1CC[C@@H](C)C[C@H]1O` [l-menthol], the “Inhibition by l-Menthol (%)” value worked out at 0.12% in the assay on IP3 receptor; 28.19% in assay [1]; 0% in assay [2]; 21.87% in assay [3]; 0.2% in assay [4]; 24.78% in [5]. For the same compound, the “Inhibition by l-Menthol (%)” value in the assay on Monoamine transporter was 7.73%; at VIP 1 receptor (Human) it was 2.48%; in [6] it was 0%; in the assay on Na Channel, 14.04%; in assay [7] it was 0%; in assay [8] it was 1.27%. In addition, the “Inhibition by l-Menthol (%)” value in [9] came out at 0%.
